Measured values from patent US20040047863A1, “Combination therapy using a TNF binding protein for treating TNF-mediated diseases” (Amgen Inc., priority 1996, published 2004).

B1: c105 sTNFR-I dumbbell: E. coli-derived c105 sTNFR-I dimerized with PEG-20,000-bis-vinyl sulfone (protein, UniProt P19438 30-211, looked up)
extracellular domain: LVPHLGDREKRDSVCPQGKYIHPQNNSICCTKCHKGTYLYNDCPGPGQDTDCRECESGSFTASENHLRHCLSCSKCRKEMGQVEISSCTVDRDTVCGCRKNQYRHYWSENLFQCFNCSLCLNGTVHLSCQEKQNTVCTCHAGFFLRENECVSCSNCKKSLECTKLCLPQIENVKGTEDSGTT
modifications: extracellular domain c105 truncation; PEG-20000-bis-vinyl sulfone dimer
notes: E. coli-derived c105 sTNFR-I dimerized with PEG-20,000-bis-vinyl sulfone

What was measured:
[1] = tested on: adjuvant arthritic rats; test: Adjuvant-induced arthritis model, combination of c105 sTNFR-I dumbbell and methotrexate (Example 1); assay type: in vivo, rat
Method: An animal model of rheumatoid arthritis induced by an adjuvant was used to investigate the combination therapy of a TNF binding protein and methotrexate in male Lewis rats (3-7/group) weighing at least 200 g.
On day-0, all rats were injected with 100 μl of Freunds Complete Adjuvant (Sigma Chemical Co., St. Louis, Mo.) to which a synthetic adjuvant, N,N-dioctyldecyldecyl-N′, N-bis(2-hydroxy-ethyl) propanediamine, 50 mg/ml, was added. On days 0-14 methotrexate in 1% carboxymethylcellulose (Sigma) was orally administered daily (0.06 mg/kg) to two groups of rats. On days 8, 10, 12, and 14, E. coli-derived c105 sTNFR-I dimerized with PEG-20,000-bis-vinyl sulfone (c105 sTNFR-I dumbbell; prepared generally in accordance with the teachings of WO 95/34326) formulated in pharmaceutical composition (34 mM NaCl, 10 mM sodium phosphate, 4% sorbitol (w/v) in water; pH 6.5) was administered by subcutaneous (SC) injection (3 mg/kg) to one group of rats being treated with both Freunds Complete Adjuvant and methotrexate and to another group of rats being treated with Freunds Complete Adjuvant alone.
Body weights were taken on day 0 and every other day from day 9 to termination on day 15. Caliper measurements and clinical scoring were done on day 9 and every other day until termination. At this time animal's body, paw and spleen weights were determined.

[2] = tested on: adjuvant arthritic rats; test: Adjuvant-induced arthritis model, combination of sTNFR-II Fc and methotrexate (Example 2); assay type: in vivo, rat
Method: An animal model of rheumatoid arthritis induced by an adjuvant was used to investigate the combination therapy of a TNF binding protein and methotrexate in male Lewis rats (5-7/group) weighing at least 200 g.
On day-0, all rats were injected with 100 μl of Freunds Complete Adjuvant (Sigma Chemical Co., St. Louis, Mo.) to which a synthetic adjuvant, N,N-dioctyldecyldecyl-N′, N-bis(2-hydroxy-ethyl) propanediamine, 50 mg/ml, was added. On day 0-14 methotrexate in 1% carboxymethylcellulose (Sigma) was orally administered daily (0.06 mg/kg) to two groups of rats. On days 9, 11, and 13, CHO-derived sTNFR-II/hIgG1 fusion protein (sTNFR-II Fc; prepared generally in accordance with the teachings of EP 418 014) formulated in pharmaceutical composition (34 mM NaCl, 10 mM sodium phosphate, 4% sorbitol (w/v) in water; pH 6.5) was administered by subcutaneous infusion (18 mg/kg) to one group of rats being treated with both Freunds Complete Adjuvant and methotrexate and to another group of rats being treated with Freunds Complete Adjuvant alone.
Body weights were taken on day 0 and every other day from day 9 to termination on day 15. Caliper measurements and clinical scoring were done daily from day 9 until termination on day 15. At this time animal's body, paw and spleen weights were determined.

[3] = tested on: MRL-1pr/1pr autoimmune mice challenged with LPS/D-GalNH2; test: LPS/D-Galactosamine induced lethality model (Example 3); assay type: in vivo, mouse; conditions: N=6
Method: The combination immunotherapeutic effects of c105 STNFR-I dumbbell and fas fusion protein were assessed using a mouse model of D-Galactosamine (D-GalNH2) induced lethality. The D-galactosamine (D-GalNH2)/Lipopolysaccharide (LPS) model (Mountz et al., J. Immunology, 155:4829-4837). In this model, MRL-1pr/1pr autoimmune mice are administered D-GalNH2 with bacterial endotoxin (LPS), and lethality is observed through +96 hours post challenge.
After overnight fasting, 6-8 week old female MRL-1pr/1pr mice (Jackson Laboratory, Bar Harbor, Me.) (5/7/group) were cannulated with jugular catheters and allowed to recover for several days. They were then placed in infusion cages and acclimated for a week prior initiating saline infusion.
At hour-0, all mice were injected intraperitoneally with 31 micrograms of D-GalNH2 (Sigma) suspended in Hank's Balanced Salt Solution (Gibco BRL) (120 micrograms/ml); and lipopolysaccharide (LPS) from E. coli Serotype 0127:B8 (Sigma) in sterile, endotoxin-free phosphate buffered saline (PBS) (6 micrograms/mouse).
At 0-hour-+2 hours post-challenge, fas fusion protein formulated in a pharmaceutical composition (Phosphate buffered saline (Gibco BRL, Grand Island, N.Y.)) was administered intravenously in serial 2-fold dilutions (microgram/kg dosages) to two groups of mice. […]

[4] = final analysis (inhibition at termination, day 15), c105 sTNFR-I dumbbell 3 mg/kg SC, methotrexate 0.06 mg/kg oral daily
[5] = male Lewis rats, Freunds Complete Adjuvant, c105 sTNFR-I dumbbell 3 mg/kg SC days 8, 10, 12, 14, methotrexate 0.06 mg/kg oral daily days 0-14
[6] = male Lewis rats, Freunds Complete Adjuvant, c105 sTNFR-I dumbbell 3 mg/kg SC days 8, 10, 12, 14, methotrexate 0.06 mg/kg oral daily days 0-14, as reported with FIGS. 3 and 4
[7] = male Lewis rats, Freunds Complete Adjuvant, sTNFR-II Fc 18 mg/kg subcutaneous days 9, 11, 13, methotrexate 0.06 mg/kg oral daily days 0-14

Row | Molecule | inhibition of body weight change [1, 4] [%] | inhibition of paw inflammation (terminal paw weights) [1, 4] [%] | inhibition of splenomegaly (terminal spleen weights) [1, 4] [%] | inhibition of paw swelling (area under the curve-AUC) [1, 5] | inhibition of body weight change [1, 6] | inhibition of splenomegaly / spleen weight [1, 6] | inhibition of paw inflammation (terminal paw weights) ([2]; final analysis (inhibition at termination, day 15), sTNFR-II Fc 18 mg/kg, methotrexate 0.06 mg/kg oral daily) [%] | inhibition of body weight change [2, 7] [%] | inhibition of paw swelling (area under the curve—AUC) [2, 7] [%] | inhibition of splenomegaly / spleen weight [2, 7] [%] | survival ([3]; c105 sTNFR-I dumbbell 100 micrograms/kg I.V., time=−1 hour before challenge, P<0.01 vs saline control) [%] | protection ([3]; sub-optimal dose 25 micrograms/kg, through +96 hours after challenge) [%]
1 | N-[4-[(2,4diamino-6-pteridinyl)methylamino]benzoyl]-L-glutamic acid [methotrexate] | 3 | 3.9 | 8.5 | 26% | 3% | no inhibition | 74 | 64 | 66 | 74 |  | 
2 | B1 | 13.2 | 10.9 | 30.4 | about 42% | about 13.2% | no significant benefit |  |  |  |  | 100 | −35
